Here are results for 1 molecule from publication PMC6478789, “A chemical toolbox for the study of bromodomains and epigenetic signaling” (Nature Communications, 2019).

For this test, the system named is MDA-MB-436 cells. Description: NAD+/NADH ratio measurement assay. It is filed as cell-based, human. To be noted: BAY-876, 5 days. As for the experimental part: Cells were seeded in six-well plates followed by overnight incubation. The next day, cells were treated with DMSO or the indicated concentration of BAY-876. After 5 days, cells were lysed, and intracellular metabolites were measured using commercial kits detecting acetyl-CoA (PicoProbe, Abcam ab87546) and NAD^+/NADH ratio (Abcam 65348).

On to `Cc1c(NC(=O)c2cc(C(N)=O)nc3cc(F)ccc23)c(C(F)(F)F)nn1Cc1ccc(C#N)cc1` [BAY-876], for which the “NAD+/NADH ratio” value is on record as “increase”.
